# Data as given in patent US10968236B2, “TYK2 inhibitors and uses thereof” (Nimbus Lakshmi, Inc., priority 2015, dated 2021).
# Key:
# TYK2 = TYK2 (Homo sapiens (Human), UniProt P29597); test: Tyk2 activity inhibition assay (radioactive kinase / Caliper assay); format: biochemical
# Description: (§1) Peptide substrate, [KKSRGDYMTMQIG], (20 μM) is prepared in reaction buffer (20 mM Hepes pH 7.5, 10 mM MgCl2, 1 mM EGTA, 0.02% Brij35, 0.02 mg/mL BSA, 0.1 mM […], 2 mM DTT, 1% DMSO. TYK2 (Invitrogen) kinase is added, followed by compounds in DMSO. 33PATP is added to initiate the reaction in ATP at 10 μM. Kinase reaction is incubated for 120 min at room temp and reactions are spotted onto P81 ion exchange paper (Whatman #3698-915), and then washed extensively in 0.75% phosphoric acid, prior to reading the radioactivity counts. For JAK2 (Invitrogen) kinase assay the peptide substrate poly[Glu:Tyr] (4:1), 0.2 mg/ml is used, in the reaction carried out the same as for TYK2.
# (§2) The caliper machine employs an off chip mobility shift assay to detect phosphorylated peptide substrates from kinase assays, using microfluidics technology. The assays are carried out at ATP concentration equivalent to the ATP Km, and at 1 mM ATP. Compounds are serially diluted in DMSO then further diluted in assay buffer (25 mM HEPES, pH 7.5, 0.01% Brij-35, 0.01% Triton, 0.5 mM EGTA). 5 ul of diluted compound was added into wells first, then 10 ul of enzyme mix was added into wells, followed by 10 uL of substrate mix (peptide and ATP in 10 mM MgCl2) to start reaction. Reaction was incubated at 28° C. for 25 min and then added 25 ul stop buffer (100 mM HEPES, 0.015% Brij-35, 50 mM EDTA), followed by reading with Caliper. JAK2 at 1 nM final concentration and TYK2 at 9.75 nM are from Carna, and substrates used are ATP at 20 and 16 uM, respectively. JAK2 assay uses peptide 22 and TYK2 uses peptide 30 (Caliper), each at 3 uM.
# (§3) The compound numbers correspond to the compound numbers in Table 1. Compounds having an activity designated as “A” provided an Ki≤0.01 μM; compounds having an activity designated as “B” provided an Ki of 0.01-0.1 μM; compounds having an activity designated as “C” provided an Ki of 0.1-1.0 μM; and compounds having an activity designated as “D” provided an Ki≥1.0 μM.
# JAK2 = JAK2 (Homo sapiens (Human), UniProt O60674); test: JAK2 activity inhibition assay (radioactive kinase / Caliper assay); format: biochemical
# Description: as §1, §2, §3
# [1] = tested on: IL-12 induced pSTAT4 (Tyk2-pSTAT4); test: IL-12 Induced pSTAT4 in human PBMC; format: cell-based; settings: IL-12 1.7 ng/mL
# Description: IL-12 Induced pSTAT4 in human PBMC. Human PBMC are isolated from buffy coat and are stored frozen for assays as needed. Cells for assay are thawed and resuspended in complete media containing serum, then cells are diluted to 1.67 E6 cells/ml so that 120 μl per well is 200,000 cells. 15 μl of compound or DMSO is added to the well at the desired concentrations and incubated at 1 hr at 37 C. 15 μl of stimulus (final concentration of 1.7 ng/mL IL-12) is added for 30 minutes prior to pSTAT4 and total STAT4 analysis using cell lysates prepared and analyzed by MSD reagents as per manufacturer protocol. The final DMSO concentration of compound in the assay is 0.1%.
# (§4) The compound numbers correspond to the compound numbers in Table 1. Compounds having an activity designated as “A” provided an EC50≤2 μM; compounds having an activity designated as “B” provided a EC50 of 2-20 μM, and compounds having an activity designated as “C” provided an EC50>20 μM.
# [2] = tested on: GM-CSF induced pSTAT5 (JAK2-pSTAT5); test: GM-CSF Induced pSTAT5 in human PBMC; format: cell-based; settings: GM-CSF 5 ng/mL
# Description: GM-CSF Induced pSTAT5 in human PBMC. Cells are prepared for analysis as in the above procedure and 15 μl of GM-CSF (final concentration 5 ng/mL) is added for 20 minutes prior to pSTAT5 and total STAT5 analysis using cell lysates prepared and analyzed by MSD reagents as per manufacturer protocol. The final DMSO concentration of compound in the assay is 0.1%.
# as §4
# TYK2, sequence (P29597 whole entry): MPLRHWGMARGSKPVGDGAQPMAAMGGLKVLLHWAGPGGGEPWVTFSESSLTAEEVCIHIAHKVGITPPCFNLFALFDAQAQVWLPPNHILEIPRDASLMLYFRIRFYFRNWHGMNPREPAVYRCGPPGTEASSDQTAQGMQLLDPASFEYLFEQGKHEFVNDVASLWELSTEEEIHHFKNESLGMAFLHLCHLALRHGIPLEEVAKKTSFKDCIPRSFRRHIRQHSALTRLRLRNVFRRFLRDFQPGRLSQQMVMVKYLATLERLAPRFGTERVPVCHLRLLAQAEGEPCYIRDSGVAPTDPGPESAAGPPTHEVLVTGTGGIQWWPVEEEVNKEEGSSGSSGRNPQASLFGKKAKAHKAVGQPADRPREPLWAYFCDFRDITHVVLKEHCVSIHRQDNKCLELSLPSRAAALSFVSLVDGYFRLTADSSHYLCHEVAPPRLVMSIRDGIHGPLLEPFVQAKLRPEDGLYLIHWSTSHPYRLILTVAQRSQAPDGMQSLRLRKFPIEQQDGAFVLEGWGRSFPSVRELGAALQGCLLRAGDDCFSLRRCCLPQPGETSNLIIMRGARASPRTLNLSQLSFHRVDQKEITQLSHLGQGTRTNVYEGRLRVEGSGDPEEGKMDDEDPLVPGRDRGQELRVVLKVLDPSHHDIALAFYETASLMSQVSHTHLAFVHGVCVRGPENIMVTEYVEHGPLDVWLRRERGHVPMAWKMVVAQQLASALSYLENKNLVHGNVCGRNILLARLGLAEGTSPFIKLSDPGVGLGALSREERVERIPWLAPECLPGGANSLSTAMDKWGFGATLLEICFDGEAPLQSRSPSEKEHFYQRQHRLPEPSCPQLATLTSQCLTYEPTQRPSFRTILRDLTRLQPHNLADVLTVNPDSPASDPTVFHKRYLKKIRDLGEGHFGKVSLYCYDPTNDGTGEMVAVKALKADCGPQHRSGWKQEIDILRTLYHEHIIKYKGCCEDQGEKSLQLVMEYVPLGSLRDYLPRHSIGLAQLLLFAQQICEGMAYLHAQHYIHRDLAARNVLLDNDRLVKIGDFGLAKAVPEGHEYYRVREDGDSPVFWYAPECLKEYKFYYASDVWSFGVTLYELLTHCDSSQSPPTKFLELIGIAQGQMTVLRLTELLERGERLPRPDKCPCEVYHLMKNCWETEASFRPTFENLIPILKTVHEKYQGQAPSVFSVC
# JAK2, sequence (O60674 whole entry): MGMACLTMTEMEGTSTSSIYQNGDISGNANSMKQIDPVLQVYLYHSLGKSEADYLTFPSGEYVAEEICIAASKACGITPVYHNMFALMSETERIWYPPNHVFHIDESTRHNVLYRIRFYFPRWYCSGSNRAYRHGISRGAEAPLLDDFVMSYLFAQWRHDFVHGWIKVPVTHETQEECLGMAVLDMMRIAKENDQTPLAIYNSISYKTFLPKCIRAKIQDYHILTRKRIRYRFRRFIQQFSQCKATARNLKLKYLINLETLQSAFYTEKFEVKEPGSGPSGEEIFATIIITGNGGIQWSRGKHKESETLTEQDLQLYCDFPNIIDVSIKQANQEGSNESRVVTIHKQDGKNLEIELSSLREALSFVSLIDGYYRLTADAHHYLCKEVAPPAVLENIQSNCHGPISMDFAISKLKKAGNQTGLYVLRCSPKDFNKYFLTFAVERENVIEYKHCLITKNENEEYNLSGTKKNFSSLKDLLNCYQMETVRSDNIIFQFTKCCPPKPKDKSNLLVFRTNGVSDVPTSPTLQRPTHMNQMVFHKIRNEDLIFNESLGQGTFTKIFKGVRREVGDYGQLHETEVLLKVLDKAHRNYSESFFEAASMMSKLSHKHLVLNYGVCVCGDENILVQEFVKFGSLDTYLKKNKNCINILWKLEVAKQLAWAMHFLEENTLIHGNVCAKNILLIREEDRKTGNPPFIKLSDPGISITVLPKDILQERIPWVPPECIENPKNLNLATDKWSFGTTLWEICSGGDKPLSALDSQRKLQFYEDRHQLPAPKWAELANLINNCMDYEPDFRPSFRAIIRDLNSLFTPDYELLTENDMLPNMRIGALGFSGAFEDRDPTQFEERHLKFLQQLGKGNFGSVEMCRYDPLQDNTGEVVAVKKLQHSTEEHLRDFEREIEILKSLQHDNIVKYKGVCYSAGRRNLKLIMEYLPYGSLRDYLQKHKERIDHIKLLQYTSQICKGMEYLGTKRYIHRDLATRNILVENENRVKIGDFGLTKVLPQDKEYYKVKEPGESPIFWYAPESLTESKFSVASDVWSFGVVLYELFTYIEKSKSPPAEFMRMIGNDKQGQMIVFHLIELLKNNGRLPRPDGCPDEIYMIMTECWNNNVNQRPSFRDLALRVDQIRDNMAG
SMILES,Ki (TYK2) [nM],Ki (JAK2) [nM],EC50 [1] [nM],EC50 [2] [nM]
"N#Cc1cccc(F)c1-c1cc(Nc2ccc(N3CCC4(CC(O)CO4)C3)cn2)c2c(n1)CNC2=O (stereo in doubt) [Compound I-89, 3-fluoro-2-(4-((5-((3S,5R)-3-hydroxy-1-oxa-7-azaspiro[4.4]nonan-7-yl)pyridin-2-yl)amino)-5-oxo-6,7-dihydro-5H-pyrrolo[3,4-b]pyridin-2-yl)benzonitrile]",≤ 10,≤ 10,≤ 2000,≤ 2000
"N#Cc1cccc(F)c1-c1cc(Nc2ccc(N3CCC4(C[C@H](O)CO4)C3)cn2)c2c(n1)CNC2=O (stereo in doubt) [Compound I-91, 3-fluoro-2-(4-((5-((3S,5S)-3-hydroxy-1-oxa-7-azaspiro[4.4]nonan-7-yl)pyridin-2-yl)amino)-5-oxo-6,7-dihydro-5H-pyrrolo[3,4-b]pyridin-2-yl)benzonitrile]",≤ 10,≤ 10,≤ 2000,≤ 2000
"N#Cc1cccc(F)c1-c1cc(Nc2ccc(N3CCC4(C[C@H](O)CO4)C3)cn2)c2c(n1)CNC2=O (stereo in doubt) [Compound I-93, 3-fluoro-2-(4-((5-((3S,5R)-3-hydroxy-1-oxa-7-azaspiro[4.4]nonan-7-yl)pyridin-2-yl)amino)-5-oxo-6,7-dihydro-5H-pyrrolo[3,4-b]pyridin-2-yl)benzonitrile]",≤ 10,10 to 100,≤ 2000,2000 to 20000
"O=C1NCc2nc(-c3c(F)cccc3F)nc(Nc3ccc4c(c3)NCC4)c21 [Compound I-1, 2-(2,6-difluorophenyl)-4-(indolin-6-ylamino)-6,7-dihydro-5H-pyrrolo[3,4-d]pyrimidin-5-one]",≤ 10,100 to 1000,≤ 2000,2000 to 20000
"CC1(C)CNc2cc(Nc3nc(-c4c(F)cccc4F)nc4c3C(=O)NC4)ccc21 [Compound I-2, 2-(2,6-difluorophenyl)-4-((3,3-dimethylindolin-6-yl)amino)-6,7-dihydro-5H-pyrrolo[3,4-d]pyrimidin-5-one]",≤ 10,10 to 100,≤ 2000,2000 to 20000
"C[C@](O)(c1ccc(Nc2nc(-c3c(F)cccc3F)nc3c2C(=O)NC3)cc1)C(F)(F)F [Compound I-34, (S)-2-(2,6-difluorophenyl)-4-((4-(1,1,1-trifluoro-2-hydroxy-propan-2-yl)phenyl)amino)-6,7-dihydro-5H-pyrrolo[3,4-d]pyrimidin-5-one]",–,10 to 100,≤ 2000,2000 to 20000
"O=C1NCc2nc(-c3c(F)cccc3F)cc(Nc3ccc4c(c3)OC(F)(F)O4)c21 [Compound I-69, 4-((2,2-difluorobenzo[d][1,3]dioxol-5-yl)amino)-2-(2,6-difluoro-phenyl)-6,7-dihydro-5H-pyrrolo[3,4-b]pyridin-5-one]",10 to 100,≥ 1000,–,–
"CC1(C)Cc2ccc(Nc3cc(-c4c(F)cccc4F)nc4c3C(=O)NC4)cc2O1 [Compound I-71, 2-(2,6-difluorophenyl)-4-((2,2-dimethyl-2,3-dihydrobenzofuran-6-yl)amino)-6,7-dihydro-5H-pyrrolo[3,4-b]pyridin-5-one]",10 to 100,100 to 1000,–,–
"O=C1NCc2nc(-c3c(F)cccc3F)cc(Nc3ccc(N4C[C@H]5COC[C@H]5C4)nc3)c21 [Compound I-73, 2-(2,6-difluorophenyl)-4-((6-((3aR,6aS)-tetrahydro-1H-furo[3,4-c]pyrrol-5(3H)-yl)pyridin-3-yl)amino)-6,7-dihydro-5H-pyrrolo[3,4-b]pyridin-5-one]",10 to 100,≥ 1000,–,–
"N#Cc1cccc(F)c1-c1cc(Nc2ccc(N3C[C@H]4COC[C@H]4C3)nc2)c2c(n1)CNC2=O [Compound I-74, 3-fluoro-2-(5-oxo-4-((6-((3aR,6aS)-tetrahydro-1H-furo[3,4-c]pyrrol-5(3H)-yl)pyridin-3-yl)amino)-6,7-dihydro-5H-pyrrolo[3,4-b]pyridin-2-yl)benzonitrile]",≤ 10,100 to 1000,–,–
"N#Cc1cccc(F)c1-c1cc(Nc2ccc(N3C[C@H]4COC[C@H]4C3)cn2)c2c(n1)CNC2=O [Compound I-76, 3-fluoro-2-(5-oxo-4-((5-((3aR,6aS)-tetrahydro-1H-furo[3,4-c]pyrrol-5(3H)-yl)pyridin-2-yl)amino)-6,7-dihydro-5H-pyrrolo[3,4-b]pyridin-2-yl)benzonitrile]",≤ 10,10 to 100,–,–
"O=C1NCc2nc(-c3c(F)cccc3F)cc(Nc3ccc4c(c3)OC3(CC3)C4=O)c21 [Compound I-77, 2-(2,6-difluorophenyl)-4-((3-oxo-3H-spiro[benzofuran-2,1′-cyclopropan]-6-yl)amino)-6,7-dihydro-5H-pyrrolo[3,4-b]pyridin-5-one]",≤ 10,10 to 100,–,–
"CC(O)(c1ccc(Nc2cc(-c3c(F)cccc3F)nc3c2C(=O)NC3)nc1)C(F)(F)F (stereo not drawn) [Compound I-78, 2-(2,6-difluorophenyl)-4-((5-(1,1,1-trifluoro-2-hydroxypropan-2-yl)pyridin-2-yl)amino)-6,7-dihydro-5H-pyrrolo[3,4-b]pyridin-5-one]",≤ 10,10 to 100,–,–
"CC1(C)COc2cc(Nc3cc(-c4c(F)cccc4C#N)nc4c3C(=O)NC4)ccc21 [Compound I-80, 2-(4-((3,3-dimethyl-2,3-dihydrobenzofuran-6-yl)amino)-5-oxo-6,7-dihydro-5H-pyrrolo[3,4-b]pyridin-2-yl)-3-fluorobenzonitrile]",≤ 10,10 to 100,–,–
"CCNC(=O)C(C)(C)c1ccc(Nc2cc(-c3c(F)cccc3C#N)nc3c2C(=O)NC3)cc1 [Compound I-81, 2-(4-((2-(2-cyano-6-fluorophenyl)-5-oxo-6,7-dihydro-5H-pyrrolo[3,4-b]pyridin-4-yl)amino)phenyl)-N-ethyl-2-methylpropanamide]",≤ 10,≤ 10,–,–
"CC1(C)COc2nc(Nc3cc(-c4c(F)cccc4C#N)nc4c3C(=O)NC4)ccc21 [Compound I-85, 2-(4-((3,3-dimethyl-2,3-dihydrofuro[2,3-b]pyridin-6-yl)amino)-5-oxo-6,7-dihydro-5H-pyrrolo[3,4-b]pyridin-2-yl)-3-fluorobenzonitrile]",≥ 1000,≥ 1000,–,–
"O=C1NCc2nc(-c3c(F)cccc3F)cc(Nc3ccc4c(c3)CS(=O)(=O)C4)c21 [Compound I-86, 2-(2,6-difluorophenyl)-4-((2,2-dioxido-1,3-dihydro-benzo[c]thio-phen-5-yl)amino)-6,7-dihydro-5H-pyrrolo[3,4-b]pyridin-5-one]",≤ 10,10 to 100,–,–
"N#Cc1cccc(F)c1-c1cc(Nc2ccc(N3CC4(CC4)C(O)C4(CC4)C3)cn2)c2c(n1)CNC2=O [Compound I-87, 3-fluoro-2-(4-((5-(4-hydroxy-9-azadispiro[2.1.25.33]decan-9-yl)pyridin-2-yl)amino)-5-oxo-6,7-dihydro-5H-pyrrolo [3,4-b]pyridin-2-yl)benzonitrile]",≤ 10,≤ 10,–,–
N#Cc1cccc(F)c1-c1cc(Nc2ccc(N3CC[C@@]4(C[C@@H](O)CO4)C3)cn2)c2c(n1)CNC2=O [Compound I-90],≤ 10,≤ 10,–,–
"N#Cc1cccc(F)c1-c1cc(Nc2ccc(N3CC[C@]4(C[C@@H](O)CO4)C3)cn2)c2c(n1)CNC2=O [Compound I-92, 3-fluoro-2-(4-((5-((3R,5S)-3-hydroxy-1-oxa-7-azaspiro[4.4]nonan-7-yl)pyridin-2-yl)amino)-5-oxo-6,7-dihydro-5H-pyrrolo[3,4-b]pyridin-2-yl)benzonitrile]",≤ 10,10 to 100,–,–
